Experimental data: publication PMC11369193, “Structural insights into human ABCD3-mediated peroxisomal acyl-CoA translocation” (Cell Discovery, 2024)

How the values were obtained:
chABCD3 [1] = system: T1, chABCD3; assay: ATPase activity, malachite green phosphate assay; format: biochemical, Homo sapiens; conditions: LMNG + CHS detergent; 20 mM Tris-HCl pH 7.5, 2 mM MgCl2, 37 °C; no acyl-CoA (basal)
T1 construct: gene ABCD3; C. elegans PMP2 residues 1-50 fused to human ABCD3 residues 51-659, N-terminal FLAG tag, HEK293F, homodimer; PMP2 segment invisible in structures; with Peroxisomal Membrane Protein related (Caenorhabditis elegans)

chABCD3 [2] = system: T1, chABCD3; assay: ATPase activity, malachite green phosphate assay; cryo-EM structure […] Å (GDN); format: biochemical, Homo sapiens; conditions: LMNG + CHS detergent; 20 mM Tris-HCl pH 7.5, 2 mM MgCl2, 37 °C; no acyl-CoA (basal); structure with 10 mM ATP/Mg2+
chABCD3 [3] = biological target: T1, chABCD3; assay: stimulation of ATPase activity, malachite green phosphate assay; cryo-EM structure […] Å (digitonin); format: biochemical, Homo sapiens; conditions: 2 mM ATP; LMNG + CHS; 20 mM Tris-HCl pH 7.5, 2 mM MgCl2, 37 °C; activation of ATPase; two sites per dimer
[4] = biological target: chimeric ABCD3 (chABCD3): N-terminal 50 residues of C. elegans PMP2 fused to the core domains of human ABCD3, wild type (Caenorhabditis elegans | human) (UniProt P28288); assay: cryo-EM structure; purified chABCD3 (~10 mg/mL) in digitonin with 0.5 mM phytanoyl-CoA; C2 symmetry; inward-facing conformation; 2.9 Å
[5] = substrate: Nc1ncnc2c1ncn2[C@@H]1O[C@H](COP(=O)(O)OP(=O)(O)OP(=O)(O)O)[C@@H](O)[C@H]1O; assay: ATPase activity, malachite green phosphate assay; format: biochemical, Homo sapiens; conditions: LMNG + CHS detergent, 20 mM Tris-HCl pH 7.5, 2 mM MgCl2, 37 °C, no acyl-CoA (basal)

Nc1ncnc2c1ncn2[C@@H]1O[C@H](COP(=O)(O)OP(=O)(O)OP(=O)(O)O)[C@@H](O)[C@H]1O [ATP]
Km (chABCD3 [1]): 160 µM
Km (chABCD3 [2]): 190 µM

CC(C)CCCC(C)CCCC(C)CCCC(C)CC(=O)SCCNC(=O)CCNC(=O)[C@H](O)C(C)(C)COP(=O)(O)OP(=O)(O)OC[C@H]1O[C@@H](n2cnc3c(N)ncnc32)[C@H](O)[C@@H]1OP(=O)(O)O (some centres unmarked) [phytanoyl-CoA]
EC50 (chABCD3 [3]): ~460 nM

chimeric ABCD3 (chABCD3): N-terminal 50 residues of C. elegans PMP2 fused to the core domains of human ABCD3, wild type (from UniProt P28288 51-659)
stoichiometry N [4]: 2

B1: hABCD3 (Homo sapiens) (protein)
chain: MAAFSKYLTARNSSLAGAAFLLLCLLHKRRRALGLHGKKSGKPPLQNNEKEGKKERAVVDKVFFSRLIQILKIMVPRTFCKETGYLVLIAVMLVSRTYCDVWMIQNGTLIESGIIGRSRKDFKRYLLNFIAAMPLISLVNNFLKYGLNELKLCFRVRLTKYLYEEYLQAFTYYKMGNLDNRIANPDQLLTQDVEKFCNSVVDLYSNLSKPFLDIVLYIFKLTSAIGAQGPASMMAYLVVSGLFLTRLRRPIGKMTITEQKYEGEYRYVNSRLITNSEEIAFYNGNKREKQTVHSVFRKLVEHLHNFILFRFSMGFIDSIIAKYLATVVGYLVVSRPFLDLSHPRHLKSTHSELLEDYYQSGRMLLRMSQALGRIVLAGREMTRLAGFTARITELMQVLKDLNHGKYERTMVSQQEKGIEGVQVIPLIPGAGEIIIADNIIKFDHVPLATPNGDVLIRDLNFEVRSGANVLICGPNGCGKSSLFRVLGELWPLFGGRLTKPERGKLFYVPQRPYMTLGTLRDQVIYPDGREDQKRKGISDLVLKEYLDNVQLGHILEREGGWDSVQDWMDVLSGGEKQRMAMARLFYHKPQFAILDECTSAVSVDVEGYIYSHCRKVGITLFTVSHRKSLWKHHEYYLHMDGRGNYEFKQITEDTVEFGS
notes: full-length (659 residues), codon-optimized, N-terminal FLAG tag, expressed in HEK293F; LMNG + CHS detergent
Km [5]: 240 µM
